Earlier results, collected in patent publication US8247348B1, “Method of preserving cut plant material” (priority 2007, dated 2012).

| Compound | type of antifungal action (fungi) | pH at which effective (fungi; effective only in acidic conditions) | amount that can be lethal (humans; adults, as little as (2 tablespoons)) [milliliters] | estimated LD100 (humans; in humans) |
| --- | --- | --- | --- | --- |
| O=C([O-])c1ccccc1.[Na+] [Sodium benzoate] | fungistatic not fungicidal | < 4.5 |  |  |
| OCCO [Ethylene glycol] |  |  | 30 | approximately 1.4 ml/kg |
